Tests used:
[1] = Biodistribution of [18F]FP-6b in normal mice (Table 4); type: in vivo, ICR mice; conditions: iv
Experimental: After anesthetizing ICR mice (22-25 g male) with isoflurane, 0.15 mL of a 0.1% bovine serum albumin solution containing [^18F]FP-(+)-6b (10-20 μCi) was injected directly into the tail vein. The mice (n=3 for each time point) were sacrificed by cervical dislocation (under isoflurane anesthesia) at indicated time-points post-injection. The organs of interest were removed and weighed, and the radioactivity was counted with an automatic gamma counter. The percentage dose per organ was calculated by a comparison of the tissue counts to suitably diluted aliquots of the injected material. The total activity of the blood was calculated under the assumption that it was 7% of the total body weight. The % does/g of samples was calculated by comparing the sample counts with the count of the diluted initial dose.

[2] = Metabolic stability in mouse brain; type: in vivo, mice; conditions: mouse striatum, 30 minutes post-injection, ethyl acetate extraction/TLC
Experimental: Two mice were injected with 200 μCi [^18F]FP-(+)-DTBZ and sacrificed at 30 minutes post-injection. The brains were removed and the striatal regions were dissected out. The striatal homogenates (prepared in PBS, 10% w/v) were extracted with 0.5 mL of ethyl acetate in the presence of a small amount of carrier (10 μg of […]). Extraction was repeated three times and the ethyl acetate layers and the buffer layers were counted separately to determine the percent extracted. […] A control sample ([^18F]FP-(±)-DTBZ mixed with normal mouse striatal homogenates in situ) was carried out in parallel for comparison.

islet cell homogenates = assay: In vitro binding to islet cell homogenates (FIG. 8)

COc1cc2c(cc1OCCC[18F])CCN1C[C@@H](CC(C)C)[C@H](O)C[C@H]21 [[^18F]-(+)-6b]
Organ distribution Blood ([1]; 2 min): 2.12 ± 0.17 % dose/g
Organ distribution Bone ([1]; 2 min): 1.95 ± 0.30 % dose/g
Organ distribution Brain ([1]; 2 min): 4.82 ± 0.86 % dose/g
Organ distribution Heart ([1]; 2 min): 5.47 ± 1.19 % dose/g
Organ distribution Kidney ([1]; 2 min): 10.7 ± 2.02 % dose/g
Organ distribution Liver ([1]; 2 min): 24.6 ± 1.37 % dose/g
Organ distribution Lung ([1]; 2 min): 9.04 ± 4.71 % dose/g
Organ distribution Muscle ([1]; 2 min): 0.78 ± 0.11 % dose/g
Organ distribution Skin ([1]; 2 min): 1.05 ± 0.12 % dose/g
Organ distribution Spleen ([1]; 2 min): 7.38 ± 1.62 % dose/g
Ratio (vs CB) Cortex ([1]; 2 min): 0.97
Ratio (vs CB) Hippocampus ([1]; 2 min): 0.97
Ratio (vs CB) Hypothalamus ([1]; 2 min): 1.37
Ratio (vs CB) Remainder ([1]; 2 min): 1.01
Ratio (vs CB) Striatum ([1]; 2 min): 1.56
Regional brain distribution Cerebellum (CB) ([1]; 2 min): 4.67 ± 0.74 % dose/g
Regional brain distribution Cortex ([1]; 2 min): 4.54 ± 0.66 % dose/g
Regional brain distribution Hippocampus ([1]; 2 min): 4.54 ± 0.72 % dose/g
Regional brain distribution Hypothalamus ([1]; 2 min): 6.41 ± 1.11 % dose/g
Regional brain distribution Remainder ([1]; 2 min): 4.71 ± 0.74 % dose/g
Regional brain distribution Striatum ([1]; 2 min): 7.28 ± 0.80 % dose/g
Organ distribution Blood ([1]; 30 min): 1.73 ± 0.15 % dose/g
Organ distribution Bone ([1]; 30 min): 4.88 ± 1.43 % dose/g
Organ distribution Brain ([1]; 30 min): 2.05 ± 0.37 % dose/g
Organ distribution Heart ([1]; 30 min): 2.43 ± 0.22 % dose/g
Organ distribution Kidney ([1]; 30 min): 5.81 ± 1.15 % dose/g
Organ distribution Liver ([1]; 30 min): 22.2 ± 1.98 % dose/g
Organ distribution Lung ([1]; 30 min): 3.17 ± 0.33 % dose/g
Organ distribution Muscle ([1]; 30 min): 1.10 ± 0.12 % dose/g
Organ distribution Skin ([1]; 30 min): 1.42 ± 0.03 % dose/g
Organ distribution Spleen ([1]; 30 min): 3.69 ± 0.25 % dose/g
Ratio (vs CB) Cortex ([1]; 30 min): 1.34
Ratio (vs CB) Hippocampus ([1]; 30 min): 1.59
Ratio (vs CB) Hypothalamus ([1]; 30 min): 3.52
Ratio (vs CB) Remainder ([1]; 30 min): 1.45
Ratio (vs CB) Striatum ([1]; 30 min): 4.51
Regional brain distribution Cerebellum (CB) ([1]; 30 min): 1.41 ± 0.23 % dose/g
Regional brain distribution Cortex ([1]; 30 min): 1.88 ± 0.63 % dose/g
Regional brain distribution Hippocampus ([1]; 30 min): 2.23 ± 0.59 % dose/g
Regional brain distribution Hypothalamus ([1]; 30 min): 4.95 ± 0.84 % dose/g
Regional brain distribution Remainder ([1]; 30 min): 2.04 ± 0.28 % dose/g
Regional brain distribution Striatum ([1]; 30 min): 6.34 ± 1.01 % dose/g
Organ distribution Blood ([1]; 60 min): 0.97 ± 0.04 % dose/g
Organ distribution Bone ([1]; 60 min): 9.22 ± 0.48 % dose/g
Organ distribution Brain ([1]; 60 min): 1.10 ± 0.32 % dose/g
Organ distribution Heart ([1]; 60 min): 1.67 ± 0.02 % dose/g
Organ distribution Kidney ([1]; 60 min): 3.48 ± 0.34 % dose/g
Organ distribution Liver ([1]; 60 min): 14.5 ± 0.91 % dose/g
Organ distribution Lung ([1]; 60 min): 2.00 ± 0.05 % dose/g
Organ distribution Muscle ([1]; 60 min): 0.73 ± 0.04 % dose/g
Organ distribution Skin ([1]; 60 min): 1.06 ± 0.04 % dose/g
Organ distribution Spleen ([1]; 60 min): 2.11 ± 0.05 % dose/g
Ratio (vs CB) Cortex ([1]; 60 min): 1.00
Ratio (vs CB) Hippocampus ([1]; 60 min): 1.32
Ratio (vs CB) Hypothalamus ([1]; 60 min): 2.71
Ratio (vs CB) Remainder ([1]; 60 min): 1.45
Ratio (vs CB) Striatum ([1]; 60 min): 4.74
Regional brain distribution Cerebellum (CB) ([1]; 60 min): 0.89 ± 0.01 % dose/g
Regional brain distribution Cortex ([1]; 60 min): 0.89 ± 0.11 % dose/g
Regional brain distribution Hippocampus ([1]; 60 min): 1.18 ± 0.12 % dose/g
Regional brain distribution Hypothalamus ([1]; 60 min): 2.42 ± 0.52 % dose/g
Regional brain distribution Remainder ([1]; 60 min): 1.30 ± 0.08 % dose/g
Regional brain distribution Striatum ([1]; 60 min): 4.24 ± 0.78 % dose/g
Organ distribution Blood ([1]; 2 hr): 0.57 ± 0.09 % dose/g
Organ distribution Bone ([1]; 2 hr): 12.7 ± 1.84 % dose/g
Organ distribution Brain ([1]; 2 hr): 0.68 ± 0.11 % dose/g
Organ distribution Heart ([1]; 2 hr): 0.91 ± 0.14 % dose/g
Organ distribution Kidney ([1]; 2 hr): 2.28 ± 0.34 % dose/g
Organ distribution Liver ([1]; 2 hr): 9.81 ± 0.94 % dose/g
Organ distribution Lung ([1]; 2 hr): 1.26 ± 0.13 % dose/g
Organ distribution Muscle ([1]; 2 hr): 0.53 ± 0.05 % dose/g
Organ distribution Skin ([1]; 2 hr): 0.67 ± 0.06 % dose/g
Organ distribution Spleen ([1]; 2 hr): 1.40 ± 0.35 % dose/g
Ratio (vs CB) Cortex ([1]; 2 hr): 0.96
Ratio (vs CB) Hippocampus ([1]; 2 hr): 1.09
Ratio (vs CB) Hypothalamus ([1]; 2 hr): 1.90
Ratio (vs CB) Remainder ([1]; 2 hr): 1.15
Ratio (vs CB) Striatum ([1]; 2 hr): 3.28
Regional brain distribution Cerebellum (CB) ([1]; 2 hr): 0.54 ± 0.09 % dose/g
Regional brain distribution Cortex ([1]; 2 hr): 0.51 ± 0.02 % dose/g
Regional brain distribution Hippocampus ([1]; 2 hr): 0.58 ± 0.15 % dose/g
Regional brain distribution Hypothalamus ([1]; 2 hr): 1.02 ± 0.11 % dose/g
Regional brain distribution Remainder ([1]; 2 hr): 0.62 ± 0.10 % dose/g
Regional brain distribution Striatum ([1]; 2 hr): 1.76 ± 0.33 % dose/g
Organ distribution Blood ([1]; 4 hr): 0.06 ± 0.02 % dose/g
Organ distribution Bone ([1]; 4 hr): 3.49 ± 0.35 % dose/g
Organ distribution Brain ([1]; 4 hr): 0.16 ± 0.03 % dose/g
Organ distribution Heart ([1]; 4 hr): 0.12 ± 0.01 % dose/g
Organ distribution Kidney ([1]; 4 hr): 0.31 ± 0.02 % dose/g
Organ distribution Liver ([1]; 4 hr): 1.58 ± 0.08 % dose/g
Organ distribution Lung ([1]; 4 hr): 0.19 ± 0.01 % dose/g
Organ distribution Muscle ([1]; 4 hr): 0.06 ± 0.01 % dose/g
Organ distribution Skin ([1]; 4 hr): 0.09 ± 0.01 % dose/g
Organ distribution Spleen ([1]; 4 hr): 0.17 ± 0.02 % dose/g
Ratio (vs CB) Cortex ([1]; 4 hr): 0.87
Ratio (vs CB) Hippocampus ([1]; 4 hr): 0.99
Ratio (vs CB) Hypothalamus ([1]; 4 hr): 1.15
Ratio (vs CB) Remainder ([1]; 4 hr): 1.02
Ratio (vs CB) Striatum ([1]; 4 hr): 1.11
Regional brain distribution Cerebellum (CB) ([1]; 4 hr): 0.41 ± 0.02 % dose/g
Regional brain distribution Cortex ([1]; 4 hr): 0.36 ± 0.02 % dose/g
Regional brain distribution Hippocampus ([1]; 4 hr): 0.41 ± 0.01 % dose/g
Regional brain distribution Hypothalamus ([1]; 4 hr): 0.47 ± 0.01 % dose/g
Regional brain distribution Remainder ([1]; 4 hr): 0.42 ± 0.05 % dose/g
Regional brain distribution Striatum ([1]; 4 hr): 0.46 ± 0.13 % dose/g
degradation [2]: less than 5%
binding to islet cell homogenates (islet cell homogenates): specific and saturable

— patent US8562949B2, “Radiolabeled dihydrotetrabenazine derivatives and their use as imaging agents” (The Trustees of the University of Pennsylvania, priority 2006, dated 2013)
